Source: patent US20180092947A1, “L-MYC Expression Maintains Self Renewal and Prolongs Multipotency of Primary Human Neural Stem Cells” (priority 2016, published 2018)

Test system: U251 human glioma cells
Assay: In vitro cytotoxicity assay, CPT-11 alone or with hCElm6 (CellTiter-Glo)
Format: cell-based
Conditions: irinotecan 0-100 μM for 4 hours, then 96 hours drug-free, conditioned medium from CE-expressing LM-NSC008 cells
Excerpt: To explore the therapeutic potential of LM-NSC008 cells, we characterized their migration to tumor-conditioned media in vitro. […] We performed in vitro cytotoxicity assays using human U251 glioma cells and various concentrations of irinotecan alone or in combination with CE derived from LM-NSC008 cells adenovirally transduced to express hCElm6. We observed enhanced irinotecan toxicity (500-fold) in the presence of hCElm6 in the culture media, when compared with CPT-11 alone. CE (hCElm6) activity was measured at 995 nmol/min/ml in the conditioned media derived from LM-NSC008 cells prior to cytotoxicity experiment (FIG. 2D).
Human U251 glioma cell line was used in in vitro cytotoxicity assays as described previously (Metz et al., 2013). Briefly, cells were placed into 96-well plates (5,000 cells per well, in triplicate) in […] of culture media per well and cultured for 24 hours. Irinotecan (CPT-11), diluted in control culture medium or conditioned medium from CE-expressing LM-NSC008 cells, was then added to final concentrations of 0-100 μM. Cells were incubated with irinotecan for 4 hours, after which medium was aspirated and replaced with drug-free fresh medium, and cells were grown for an additional 96 hours. […]

## CCc1c2c(nc3ccc(OC(=O)N4CCC(N5CCCCC5)CC4)cc13)-c1cc3c(c(=O)n1C2)COC(=O)[C@]3(O)CC [irinotecan]
  enhanced irinotecan toxicity in the presence of hCElm6 compared with CPT-11 alone: 500 fold
